Experimental data taken from paper PMC7190722, “Brain distribution of geissoschizine methyl ether in rats using mass spectrometry imaging analysis” (Scientific Reports, 2020).
Values joined by “and” are separate entries in the source; they are usually repeats but may differ in a detail not shown here. Equal entries are not always repeated.

What was measured:
[1] = Plasma concentrations of GM and HM-1/2 by LC-MS/MS after intravenous GM injection; type: in vivo, rat
Experimental: GM (5 mg/kg) or vehicle (70% DMSO; 0.6 mL/kg) was injected into the tail vein of rats fasted for approximately 16 h. […] Blood samples were centrifuged at 1,700 × g and 4 °C for 15 min to obtain the plasma. The brain of each animal was immediately removed and weighed after blood collection and frozen with liquid nitrogen. On the day of analysis, frozen plasma from GM-treated rats was thawed at room temperature, and 25 µL of the plasma was mixed with equal volumes of methanol and an IS vincamine (1 ng/mL) and 150 μL of ethyl acetate. To prepare the calibration curve, blank plasma and various concentrations of working solution (final plasma concentration: 0.08–2 µg/mL) were used instead of methanol and GM-treated plasma. The mixture was centrifuged at 7,000 × g and 4 °C for 5 min. The supernatant was dried under a stream of nitrogen gas. The dried residue was dissolved in 60 μL of the initial mobile phase of LC, and then, a 5-μL aliquot was injected into the LC-MS/MS system composed of an Agilent 1290 LC (Agilent Technologies, Santa Clara, CA, USA) and a TripleQuad6500 MS/MS (SCIEX, Framingham, MA, USA) for measuring GM and its hydroxylated forms. The analytical conditions for LC-MS/MS were set according to previously reported methods with minor modifications[10],[15]. The protonated ions ([M + H]^+) of GM (m/z 367.0), HM-1/2 isomers (m/z 383.3), and vincamine (m/z 355.3) in Q1 (the first MS) or their specific fragment ions (GM: m/z 144.1, HM-1/2 isomers: m/z 160.2, vincamine: m/z 337.1) in Q3 (the second MS) were selected and detected by SRM using positive ion mode. Although a qualifier ion was not monitored in their analysis, the specificities of GM, HM-1/2 and vincamine in rat plasma were already confirmed by previous studies[10],[14]. The calibration curve for quantification of plasma GM concentrations was prepared using Analyst software (version 1.6.2, AB SCIEX). The plasma concentrations of HM-1/2 were expressed as relative peak area ratios of vincamine (IS) because there are currently no standard products for measuring these compounds.

[2] = parameters: method as in PMID 23813572, PMID 30741064; details: plasma and brain, after oral YKS administration to rats; cited from earlier work
normal rat brain slices = tested on: normal rat brain slices; parameters: method as in PMID 25456433, PMID 28377723; details: [^3H]GM directly exposed to normal rat brain slices; cited from earlier work
[3] = parameters: method as in PMID 21442303; details: cultured cells; cited from earlier work
[4] = Brain distribution by DESI-MSI analysis after intravenous GM injection; type: in vivo, rat; details: for concentration at 0.25 h: rat, intravenous, 5 mg/kg
Experimental: GM (5 mg/kg) or vehicle (70% DMSO; 0.6 mL/kg) was injected into the tail vein of rats fasted for approximately 16 h. […] Blood samples were centrifuged at 1,700 × g and 4 °C for 15 min to obtain the plasma. The brain of each animal was immediately removed and weighed after blood collection and frozen with liquid nitrogen. The frozen brains were used for making serial sagittal thin sliced sections (thickness 25 μm, coordinate: approximately 3.4 mm lateral from the bregma) using a […][…] cryostat (Leica Microsystems, […], Germany). Some of the serial sections mounted on conventional glass slides were used for H&E staining to confirm the location of the brain region in the slice. In MALDI-MSI analysis, some sections were mounted on indium tin oxide-coated slides ([…]., Osaka, Japan) based on previous reports[35],[36] to obtain higher sensitivity. In […] analysis, some sections were mounted on conventional glass slides. These tissue sections mounted on the slides were dried in a desiccator at room temperature for 10 min for MALDI-MSI analysis or 1 h for […] analysis. In the […] analysis, the MS/MS analysis was further performed to identify the signals of GM or its hydroxylated metabolite. The MS and MS/MS analyses for […] were performed using a Xevo G2-XS Q-Tof system (Waters, Milford, MA, USA) with an Omni Spray Ion Source 2-D (Prosolia, Indianapolis, IN, USA). In both analyses, methanol/water (98:2)solution was flowed into a capillary at a 2 μL/min flow rate. The nebulizing gas pressure was set to 0.4 MPa, the capillary voltage to 5 kV, the source temperature to 100 °C, the sampling cone to 30 V, and the scan time to 0.986 sec. In the MS analysis, the collision energy was set to 4 eV, and mass spectra were acquired in target enhancement mode, which was set to m/z 367.2. In the MS/MS analysis, the collision energy was set to 20 eV, and mass spectra were acquired in target enhancement mode, which was set to m/z 144.2. Mass resolution and spatial resolution were >20,000 and 200 μm in the MS and MS/MS analyses. The protonated ions of GM ([M + H]^+: m/z 367.2) and HM ([M + H]^+: m/z 383.2) in MS and the specific fragment ions of GM (m/z 144.2) and HM (m/z 160.2) in MS/MS were detected in positive ion mode. The intensities of GM and HM detected in the DESI-MS analysis were visualized using high-definition imaging (HDI) software (Waters, Milford, MA, USA). Normal intact brains were homogenized without adding a solvent using a T-10 basic Ultra-Turrax homogenizer (IKA, Staufen, Germany) to prepare a tissue-based calibration curve for quantifying GM. For brain homogenates, various concentrations of standard GM solution (final concentration: 6.25, 12.5, and 25.0 μg/g brain) or vehicle (methanol) as a control were added and rapidly frozen. Frozen sections (thickness 25 μm) of the homogenates spiked with standard GM were made using a […][…] cryostat (Leica Microsystems). Regional intensities of GM (m/z 367.2) and a standard endogenous molecule (m/z 366.95) in brain tissue slices and homogenate slices were evaluated by the region of interest analysis using HDI software (Waters). The GM signal intensity was expressed as the average of the relative intensity ratio to the standard endogenous molecule per […] contained in the region of interest. The regional brain concentration of GM was calculated using the tissue-based calibration curve (Fig. 3D-2).

[5] = Brain distribution by MALDI-MSI analysis after intravenous GM injection; type: in vivo, rat; details: 0.25 h after 5 mg/kg GM i.v., sagittal sections
Experimental: GM (5 mg/kg) or vehicle (70% DMSO; 0.6 mL/kg) was injected into the tail vein of rats fasted for approximately 16 h. […] Blood samples were centrifuged at 1,700 × g and 4 °C for 15 min to obtain the plasma. The brain of each animal was immediately removed and weighed after blood collection and frozen with liquid nitrogen.
The frozen brains were used for making serial sagittal thin sliced sections (thickness 25 μm, coordinate: approximately 3.4 mm lateral from the bregma) using a Leica CM3050S cryostat (Leica Microsystems, Wetzlar, Germany). Some of the serial sections mounted on conventional glass slides were used for H&E staining to confirm the location of the brain region in the slice. […]
The MALDI-MSI analysis was performed on brain slice specimens sprayed with a matrix solution (40 mg/mL 2,5-dihydroxybenzoic acid) dissolved in 50% methanol using a TM-sprayer (HTX Technologies, Chapel Hill, NC, USA). […] The targeted protonated molecule GM ([M + H]^+: m/z 367.2) was detected in positive ion mode under a laser power setting of 70%, 500 laser shots, and the continuous accumulation of selected ions mode set to ON at m/z 360 ± 50. […] GM intensity detected by the MALDI-MS analysis was visualized using FlexImaging software (Bruker Daltonics).

[6] = Amygdala, 0.25 h, individual animals
[7] = Cerebellum, 0.25 h, individual animals
[8] = Fourth ventricle, 0.25 h, individual animals
[9] = Frontal lobe, 0.25 h, individual animals
[10] = Hippocampus, 0.25 h, individual animals
[11] = Lateral ventricle, 0.25 h, individual animals
[12] = Occipital lobe, 0.25 h, individual animals
[13] = Striatum, 0.25 h, individual animals
[14] = Thalamus, 0.25 h, individual animals

With `CC=C1CN2CCc3c([nH]c4ccccc34)C2CC1C(=COC)C(=O)OC` (stereo not shown) [GM, Geissoschizine methyl ether] the “time course of plasma GM concentration” value ([1]; 0.25-4 h after 5 mg/kg GM i.v., rat) was “rapidly decreased in a time-dependent manner over 4 h”, the “plasma concentration relative to maximum concentration after oral YKS” value ([1]; 0.25 h after 5 mg/kg GM i.v. vs maximum concentration 1 h after oral 1 g/kg YKS) was “approximately 500 times” and the distribution volume ([1]; one-compartment analysis, 5 mg/kg GM i.v., rat) was 4.4 L/kg. For the same compound, the concentration at 0.25 h ([1]; plasma, iv, 0.25 h postinjection, 5 mg/kg GM i.v., rat) was 1070 ng/mL, the half-life ([1]; plasma, iv, one-compartment analysis, 5 mg/kg GM i.v., rat, read-out: apparent elimination half-life (converted)) was 1.8 h and the k el ([1]; plasma, iv, one-compartment analysis, 5 mg/kg GM i.v., rat, read-out: elimination rate constant (converted)) was 0.000111 s⁻¹. For the same compound, the clearance ([1]; plasma, iv, one-compartment analysis, 5 mg/kg GM i.v., rat, read-out: total clearance (converted)) was 28.3 mL/min/kg, the tmax [2] was 0.5 h and the “binding to brain slices” value (normal rat brain slices) was “specifically bound to various regions appearing on the surface of brain slices”. For the same compound, the BBB permeability [3] was “comparatively high”, the “GM ion signal in brain, DESI-MSI image” value ([4]; 0.25 h after 5 mg/kg GM i.v., sagittal sections) was “a diffuse GM ion signal was observed throughout the brain parenchyma” and the “Calculated GM concentration” value [4, 6] was 1.0 µg/g and 2.2 µg/g and 1.2 µg/g. The “Ion intensity of GM per pixel in ROI” value [4, 6] was 2.4 ×10^4 and 3.7 ×10^4 and 9.7 ×10^4, the “Ratio of GM/endogenous standard molecule” value [4, 6] was 0.8 and 1.8 and 1.0 and the “Calculated GM concentration” value [4, 7] was 0.8 µg/g and 2.0 µg/g and 1.1 µg/g. The “Ion intensity of GM per pixel in ROI” value [4, 7] was 4.2 ×10^4 and 2.4 ×10^4 and 8.7 ×10^4, the “Ratio of GM/endogenous standard molecule” value [4, 7] was 0.7 and 1.7 and 0.9 and the “GM intensity in the parenchyma” value ([4]; DESI-MSI, 1 and 4 h after 5 mg/kg GM i.v.) was “almost disappeared”. For the same compound, the “intracerebroventricular GM intensity” value ([4]; DESI-MSI, 0.25 h, also detected at 1 and 4 h) was “higher than the intensity in other parenchymal areas”, the “Calculated GM concentration” value [4, 8] was 2.3 µg/g and 2.0 µg/g and the “Ion intensity of GM per pixel in ROI” value [4, 8] was 4.0 ×10^4 and 3.9 ×10^4 and 26.5 ×10^4. The “Ratio of GM/endogenous standard molecule” value [4, 8] was 1.0 and 1.9 and 1.7, the “Calculated GM concentration” value [4, 9] was 1.0 µg/g and 2.6 µg/g and 1.2 µg/g and the “Ion intensity of GM per pixel in ROI” value [4, 9] was 2.9 ×10^4 and 5.4 ×10^4 and 9.1 ×10^4. The “Ratio of GM/endogenous standard molecule” value [4, 9] was 0.8 and 2.2 and 1.0, the “Calculated GM concentration” value [4, 10] was 2.3 µg/g and 1.1 µg/g and 0.8 µg/g and the “Ion intensity of GM per pixel in ROI” value [4, 10] was 4.7 ×10^4 and 10 ×10^4 and 2.0 ×10^4. For the same compound, the “Ratio of GM/endogenous standard molecule” value [4, 10] was 1.9 and 0.9 and 0.7, the “Calculated GM concentration” value [4, 11] was 1.4 µg/g and 4.5 µg/g and 2.9 µg/g and the “Ion intensity of GM per pixel in ROI” value [4, 11] was 3.0 ×10^4 and 8.3 ×10^4 and 21.2 ×10^4. For the same compound, the “Ratio of GM/endogenous standard molecule” value [4, 11] was 1.2 and 3.8 and 2.4, the “Calculated GM concentration” value [4, 12] was 1.1 µg/g and 2.7 µg/g and 1.3 µg/g and the “Ion intensity of GM per pixel in ROI” value [4, 12] was 2.9 ×10^4 and 4.8 ×10^4 and 10.5 ×10^4. For the same compound, the “Ratio of GM/endogenous standard molecule” value [4, 12] was 0.9 and 2.3 and 1.1, the “Calculated GM concentration” value [4, 13] was 0.8 µg/g and 2.6 µg/g and 1.1 µg/g and the “Ion intensity of GM per pixel in ROI” value [4, 13] was 1.9 ×10^4 and 3.9 ×10^4 and 7.2 ×10^4. The “Ratio of GM/endogenous standard molecule” value [4, 13] was 0.7 and 2.2 and 0.9, the “Calculated GM concentration” value [4, 14] was 0.7 µg/g and 2.4 µg/g and 1.1 µg/g and the “Ion intensity of GM per pixel in ROI” value [4, 14] was 1.7 ×10^4 and 4.5 ×10^4 and 8.8 ×10^4. For the same compound, the “Ratio of GM/endogenous standard molecule” value [4, 14] was 0.6 and 2.0 and 0.9, the concentration at 0.25 h ([4]; brain (fourth ventricle), Fourth ventricle, 0.25 h, individual animals, read-out: Calculated GM concentration) was 1200 ng/g and the concentration at 0.25 h ([4]; 0.25 h after 5 mg/kg GM i.v., cerebral cortex, hippocampus, striatum, amygdala, thalamus, cerebellum, lateral ventricle, read-out: regional brain GM concentration range) was 1300 to 2900 ng/g. The “GM ion signal in brain, MALDI-MSI image” value [5] was “a diffuse GM ion signal was observed throughout the brain parenchyma”.
